The target in series [1] is T1, 20566-CC (NanA-DSM20566) (Streptococcus pneumoniae, UniProt P62576, I442V). The series is described as follows: biochemical.
The target in series [2] is 20566-CC (NanA-DSM20566) (Streptococcus pneumoniae, UniProt P62576, G441A/I442V/K440R). Description: biochemical.
Series [3] addresses T2, 20566-LC (NanA-DSM20566) (Streptococcus pneumoniae, UniProt P62576).
T2 construct: lectin (CBM40) + catalytic domains, residues 116-833, N-terminal 6xHis (pET-28a), ~84 kDa, E. coli BL21(DE3), cobalt column
Description: chemiluminescence NA-Star assay. Format: biochemical. As to conditions: read-out: 50% inhibitory concentration (μM) ^a / DANA. An excerpt: chemiluminescence NA-Star assay on 20566-LC (NanA-DSM20566)

In series [4] the target is T3, 20566-CC (NanA-DSM20566) (Streptococcus pneumoniae, UniProt P62576).
T3 construct: catalytic domain only, residues 311-833 (523 aa), N-terminal 6xHis (pET-28a), ~62 kDa, E. coli BL21(DE3); catalytic domain printed as identical to CF8919
Description: chemiluminescence NA-Star assay. Format: biochemical. As to conditions: read-out: 50% inhibitory concentration (μM) ^a / DANA. An excerpt:
chemiluminescence NA-Star assay on 20566-CC (NanA-DSM20566)

The target of series [5] is T1, 20566-CC (NanA-DSM20566). To be noted: read-out: 20566-CC-KGV; MES, 4 mM CaCl2, pH 6.5, room temperature.
In series [6] the target is 20566-CC (NanA-DSM20566) (Streptococcus pneumoniae, UniProt P62576, DEL440-442). As to conditions: read-out: 20566-CC-ΔKGI; MES, 4 mM CaCl2, pH 6.5, room temperature.
The target in series [7] is 20566-CC (NanA-DSM20566) (Streptococcus pneumoniae, UniProt P62576, K440R/G441A/I442V). To be noted: read-out: 20566-CC-RAV; MES, 4 mM CaCl2, pH 6.5, room temperature.
Series [8] has as its system CC(=O)N[C@H]1[C@H]([C@H](O)[C@H](O)CO)O[C@@](Oc2ccc3c(C)cc(=O)oc3c2)(C(=O)O)C[C@@H]1O. Description: purified protein. As to conditions: pH 6.5.
The test system is the same in series [9]. Description: purified protein. As to conditions: pH 6.5. This is another data set of the same source.

This passage reports IC50 and Km results from paper PMC4850393, “Sequence diversity of NanA manifests in distinct enzyme kinetics and inhibitor susceptibility” (Scientific Reports, 2016).

Regarding `CC(=O)N[C@H]1[C@H]([C@H](O)[C@H](O)CO)OC(C(=O)O)=C[C@@H]1O` [DANA, 2,3-dehydro-2-deoxy-N-acetylneuraminic acid], the IC50 in series [1] came out at 4.56 ± 0.71 µM; in series [2] it was 0.92 ± 0.71 µM; in series [3], 3.8 ± 0.5 µM; in series [4], 2.35 ± 0.16 µM.

Take `CC(=O)N[C@H]1[C@H]([C@H](O)[C@H](O)CO)O[C@@](Oc2ccc3c(C)cc(=O)oc3c2)(C(=O)O)C[C@@H]1O` [MUNANA, 2′-(4-methylumbelliferyl)-a-D-N-acetylneuraminic acid]: the figures for the Km in series [5], in series [6] and in series [7] were 32.8 ± 4.78 µM, over 1000 µM and 17.9 ± 1.07 µM, respectively.

For (Streptococcus pneumoniae R6), the Km in [8] amounted to 25.97 ± 2.19 µM; in [9] it was 24.50 ± 2.71 µM.
